Laboratory results: patent US20110021565A1, “PIPERIDINE DERIVATIVES AS NK3 ANTAGONISTS” (priority 2007, published 2011)
Where a name gives a salt, the structure may show the parent alone. Read-outs that look alike come from different tables or passages of the source.

Target: T1, recombinant human NK3 receptor (Homo sapiens, UniProt P29371)
T1 construct: expressed in transfected cells; host or cells: HEK293 cells, transient expression; membrane preparation
T1 sequence (P29371 1-465): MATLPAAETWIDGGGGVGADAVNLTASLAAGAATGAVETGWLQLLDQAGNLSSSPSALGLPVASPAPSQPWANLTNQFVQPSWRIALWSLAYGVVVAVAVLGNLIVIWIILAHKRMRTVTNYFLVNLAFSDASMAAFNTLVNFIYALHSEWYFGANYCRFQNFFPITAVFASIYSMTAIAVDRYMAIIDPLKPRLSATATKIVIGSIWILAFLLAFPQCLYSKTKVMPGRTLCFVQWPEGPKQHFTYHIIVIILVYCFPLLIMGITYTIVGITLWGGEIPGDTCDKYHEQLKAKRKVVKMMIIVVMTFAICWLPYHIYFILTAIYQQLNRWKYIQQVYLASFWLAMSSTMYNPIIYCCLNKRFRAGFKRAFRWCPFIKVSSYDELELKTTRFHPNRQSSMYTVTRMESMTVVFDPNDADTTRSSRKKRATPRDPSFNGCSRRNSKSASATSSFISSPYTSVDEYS
Experiment: [3H]SR142801 competition binding assay
Procedure: [^3H]SR142801 Competition Binding Assay
hNK3 receptor binding experiment were performed using [^3H]SR142801 (Catalog No. TRK1035, specific activity: 74.0 Ci/mmol, Amersham, GE Healthcare UK limited, Buckinghamshire, UK) and membrane isolated from HEK293 cells transiently expressing recombinant human NK3 receptor. After thawing, the membrane homogenates were centrifuged at 48,000×g for 10 min at 4° C., the pellets were resuspended in the 50 mM Tris-HCl, 4 mM MnCl2, 1 μM phosphoramidon, 0.1% BSA binding buffer at pH 7.4 to a final assay concentration of 5 μg protein/well. For inhibition experiments, membranes were incubated with [^3H]SR142801 at a concentration equal to KD value of radioligand and 10 concentrations of the inhibitory compound (0.0003-10 μM) (in a total reaction volume of 500 μl) for 75 min at room temperature (RT). At the end of the incubation, membranes were filtered onto unitfilter (96-well white microplate with bonded GF/C filter preincubated 1 h in 0.3% PEI+0.3% BSA, Packard BioScience, Meriden, Conn.) with a Filtermate 196 harvester (Packard BioScience) and washed 4 times with ice-cold 50 mM Tris-HCl, pH 7.4 buffer. Nonspecific binding was measured in the presence of 10 μM SB222200 for both radioligands. The radioactivity on the filter was counted (5 min) on a Packard Top-count microplate scintillation counter with quenching correction after addition of 45 μl of microscint 40 (Canberra Packard S. A., Zurich, Switzerland) and shaking for 1 h. Inhibition curves were fitted according to the Hill equation: y=100/(1+(x/IC50)^nH), where nH=slope factor using Excel-fit 4 software ([…]). IC50 values were derived from the inhibition curve and the affinity constant (IQ values were calculated using the Cheng-Prussoff equation Ki=IC50/(1+[L]/KD) where [L] is the concentration of radioligand and KD is its dissociation constant at the receptor, derived from the saturation isotherm. All experiments were performed in duplicate and the mean±standard error (SEM) of the individual Ki values was calculated.

[1] = [3H]SR142801, membranes of HEK293 cells transiently expressing recombinant human NK3 receptor, read-out: hNK3 Ki
[2] = representative compounds, [3H]SR142801, HEK293 membranes, human NK3 receptor, read-out: Ki NK3 h

| SMILES | Ki [1] [nM] | Ki [2] [nM] |
| --- | --- | --- |
| CN(Cc1ccc(F)c(C(F)(F)F)c1)C(=O)C(C)(CCN1CCC(N2CCCC2=O)CC1)c1ccc(Cl)c(Cl)c1 (single isomer, unassigned) [Example 118, (S or R)-2-(3,4-Dichloro-phenyl)-N-(4-fluoro-3-trifluoromethyl-benzyl)-2,N-dimethyl-4-[4-(2-oxo-pyrrolidin-1-yl)-piperidin-1-yl]-butyramide; hydrochloride] | 171 |  |
| CN(Cc1ccc(F)c(C(F)(F)F)c1)C(=O)C(C)(CCN1CCC(N2CCCC2=O)CC1)c1ccc(Cl)c(Cl)c1 (single isomer, unassigned) [Example 119, (R or S)-2-(3,4-Dichloro-phenyl)-N-(4-fluoro-3-trifluoromethyl-benzyl)-2,N-dimethyl-4-[4-(2-oxo-pyrrolidin-1-yl)-piperidin-1-yl]-butyramide; hydrochloride] | 0.8 | 0.8 |
| C[C@](CCN1CCC(N2CCCC2=O)CC1)(C(=O)N[C@H](CO)c1ccc(Cl)c(Cl)c1)c1ccc(Cl)c(Cl)c1 (single isomer, unassigned) [Example 120, (R or S)-2-(3,4-Dichloro-phenyl)-N-[(S or R)-1-(3,4-dichloro-phenyl)-2-hydroxy-ethyl]-2-methyl-4-[4-(2-oxo-pyrrolidin-1-yl)-piperidin-1-yl]-butyramide] | 2 | 2 |
| CC(=O)N(C)C1CCN(CCC(C)(C(=O)N(C)Cc2ccc(F)c(C(F)(F)F)c2)c2ccc(Cl)c(Cl)c2)CC1 (single isomer, unassigned) [Example 121, (S or R)-4-[4-(Acetyl-methyl-amino)-piperidin-1-yl]-2-(3,4-dichloro-phenyl)-N-(4-fluoro-3-trifluoromethyl-benzyl)-2,N-dimethyl-butyramide] | 173 |  |
| CC(=O)N(C)C1CCN(CCC(C)(C(=O)N(C)Cc2ccc(F)c(C(F)(F)F)c2)c2ccc(Cl)c(Cl)c2)CC1 (single isomer, unassigned) [Example 122, (R or S)-4-[4-(Acetyl-methyl-amino)-piperidin-1-yl]-2-(3,4-dichloro-phenyl)-N-(4-fluoro-3-trifluoromethyl-benzyl)-2,N-dimethyl-butyramide] | 1.5 | 1.5 |
| CN(Cc1ccc(C(F)(F)F)c(F)c1)C(=O)C(C)(CCN1CCC(NS(C)(=O)=O)CC1)c1ccc(Cl)c(Cl)c1 (single isomer, unassigned) [Example 123, (S or R)-2-(3,4-Dichloro-phenyl)-N-(3-fluoro-4-trifluoromethyl-benzyl)-4-(4-methanesulfonylamino-piperidin-1-yl)-2,N-dimethyl-butyramide] | 800 |  |
| CN(Cc1ccc(C(F)(F)F)c(F)c1)C(=O)C(C)(CCN1CCC(NS(C)(=O)=O)CC1)c1ccc(Cl)c(Cl)c1 (single isomer, unassigned) [Example 124, (R or S)-2-(3,4-Dichloro-phenyl)-N-(3-fluoro-4-trifluoromethyl-benzyl)-4-(4-methanesulfonylamino-piperidin-1-yl)-2,N-dimethyl-butyramide] | 18.8 |  |
| CC(CCN1CCC(N2CCCC2=O)CC1)(C(=O)N[C@@H](CO)c1ccc(F)cc1)c1ccc(Cl)c(Cl)c1 (single isomer, unassigned) [Example 129, 2-(3,4-Dichloro-phenyl)-N-[(R)-1-(4-fluoro-phenyl)-2-hydroxy-ethyl]-2-(R or S) methyl-4-[4-(2-oxo-pyrrolidin-1-yl)-piperidin-1-yl]-butyramide] | 8.2 | 8.2 |
| CC(CCN1CCC(N2CCCC2=O)CC1)(C(=O)N[C@@H](CO)c1ccc(F)cc1)c1ccc(Cl)c(Cl)c1 (single isomer, unassigned) [Example 130, 2-(3,4-Dichloro-phenyl)-N-[(R)-1-(4-fluoro-phenyl)-2-hydroxy-ethyl]-2-(S or R) methyl-4-[4-(2-oxo-pyrrolidin-1-yl)-piperidin-1-yl]-butyramide] | 101 |  |
| COCCN(C(C)=O)C1CCN(CCC(C)(C(=O)N[C@@H](CO)c2ccc(F)cc2)c2ccc(Cl)c(Cl)c2)CC1 (single isomer, unassigned) [Example 150, 4-{4-[Acetyl-(2-methoxy-ethyl)-amino]-piperidin-1-yl}-2-(3,4-dichloro-phenyl)-N-[(R)-1-(4-fluoro-phenyl)-2-hydroxy-ethyl]-2-(R or S) methyl-butyramide] | 1.7 | 1.7 |
| COCCN(C(C)=O)C1CCN(CCC(C)(C(=O)N[C@@H](CO)c2ccc(F)cc2)c2ccc(Cl)c(Cl)c2)CC1 (single isomer, unassigned) [Example 151, 4-{4-[Acetyl-(2-methoxy-ethyl)-amino]-piperidin-1-yl}-2-(3,4-dichloro-phenyl)-N-[(R)-1-(4-fluoro-phenyl)-2-hydroxy-ethyl]-2-(S or R) methyl-butyramide] | 21.1 |  |
| CN(C1CCN(CCC(C)(C(=O)N[C@@H](CO)c2ccc(Cl)c(Cl)c2)c2ccc(Cl)c(Cl)c2)CC1)S(C)(=O)=O (single isomer, unassigned; diastereoisomer 1) [Example 49, 2-(3,4-Dichloro-phenyl)-N-[1-(3,4-dichloro-phenyl)-2-hydroxy-ethyl]-4-[4-(methanesulfonyl-methyl-amino)-piperidin-1-yl]-2-methyl-butyramide; diastereoisomer 1] | 5.5 | 5.5 |
| CCN(C1CCN(CCC(C)(C(=O)N[C@@H](CO)c2ccc(Cl)c(Cl)c2)c2ccc(Cl)c(Cl)c2)CC1)S(C)(=O)=O (single isomer, unassigned; diastereoisomer 1) [Example 79, 2-(3,4-Dichloro-phenyl)-N-[1-(3,4-dichloro-phenyl)-2-hydroxy-ethyl]-4-[4-(ethyl-methanesulfonyl-amino)-piperidin-1-yl]-2-methyl-butyramide; diastereoisomer 1] | 1.5 | 1.5 |
| CC(CCN1CCC(N2CCCC2=O)CC1)(C(=O)N[C@@H](CO)c1ccc(Cl)c(Cl)c1)c1ccc(Cl)c(Cl)c1 (single isomer, unassigned; diastereoisomer 1) [Example 94, 2-(3,4-Dichloro-phenyl)-N-[-1-(3,4-dichloro-phenyl)-2-hydroxy-ethyl]-2-methyl-4-[4-(2-oxo-pyrrolidin-1-yl)-piperidin-1-yl]-butyramide; diastereoisomer 1] | 3 | 3 |
| CC(=O)N(C)C1CCN(CCC(C)(C(=O)N[C@@H](CO)c2ccc(Cl)c(Cl)c2)c2ccc(Cl)c(Cl)c2)CC1 (single isomer, unassigned; diastereoisomer 1) [Example 109, 4-[4-(Acetyl-methyl-amino)-piperidin-1-yl]-2-(3,4-dichloro-phenyl)-N-[1-(3,4-dichloro-phenyl)-2-hydroxy-ethyl]-2-methyl-butyramide; diastereoisomer 1] | 5.6 | 5.6 |
| CC(=O)N(C)C1CCN(CCC(C)(C(=O)NC(CO)c2ccc(F)cc2)c2ccc(Cl)c(Cl)c2)CC1 (single isomer, unassigned; diastereoisomer 1) [Example 138, 4-[4-(Acetyl-methyl-amino)-piperidin-1-yl]-2-(3,4-dichloro-phenyl)-N-[1-(4-fluoro-phenyl)-2-hydroxy-ethyl]-2-methyl-butyramide (diastereoisomer 1)] | 29.3 |  |
| CC(=O)N(C1CC1)C1CCN(CCC(C)(C(=O)N[C@@H](CO)c2ccc(F)cc2)c2ccc(Cl)c(Cl)c2)CC1 (single isomer, unassigned; diastereoisomer 1) [Example 140, 4-[4-(Acetyl-cyclopropyl-amino)-piperidin-1-yl]-2-(3,4-dichloro-phenyl)-N-[1-(4-fluoro-phenyl)-2-hydroxy-ethyl]-2-methyl-butyramide (diastereoisomer 1)] | 33.3 |  |
